# Target: T1, human tyrosinase (Homo sapiens, UniProt P14679)
# T1 sequence (P14679 19-529): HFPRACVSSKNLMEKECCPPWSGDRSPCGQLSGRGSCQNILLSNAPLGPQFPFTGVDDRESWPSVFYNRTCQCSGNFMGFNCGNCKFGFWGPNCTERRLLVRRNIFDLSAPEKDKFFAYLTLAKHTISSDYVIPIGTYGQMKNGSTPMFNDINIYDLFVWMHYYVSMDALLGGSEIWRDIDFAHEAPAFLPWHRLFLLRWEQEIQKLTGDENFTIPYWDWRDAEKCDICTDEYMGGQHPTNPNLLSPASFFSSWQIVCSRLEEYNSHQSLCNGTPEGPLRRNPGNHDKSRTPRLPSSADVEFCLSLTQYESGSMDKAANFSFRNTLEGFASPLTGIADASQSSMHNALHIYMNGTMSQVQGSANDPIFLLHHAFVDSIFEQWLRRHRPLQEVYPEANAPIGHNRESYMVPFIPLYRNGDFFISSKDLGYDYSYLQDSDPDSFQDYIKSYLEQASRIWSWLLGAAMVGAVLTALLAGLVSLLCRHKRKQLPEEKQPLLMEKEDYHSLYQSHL
# Assay: Enzyme test: conversion of L-DOPA to L-dopaquinone by human tyrosinase (MBTH, absorption at 490 nm)
# Format: biochemical
# Settings: Concentration 100 μg/ml; substrate L-DOPA; read-out: Inhibition (% of control) of tyrosinase activity
# Description: The efficacy of the thiazoles has been verified using an enzyme test by measuring the conversion of L-DOPA to L-dopaquinone by a human tyrosinase. In this method that is known from the literature (Winder, A. J. and Harris H., New assays for the tyrosine hydroxylase and dopa oxidase activities of tyrosinase. Eur. J. Biochem. (1991), 198, 317-26), the reaction product L-dopaquinone is reacted with MBTH (3-methyl-2-benzothiazoline hydrazone) is converted to form a pink-colored substance, the increase of which over time is measured by absorption at 490 nm. In table one, efficacy data for some of the claimed substances are shown by way of example. It may be concluded therefrom that the substances according to the invention are extremely effective pigmentation-inhibiting substances.
row,inhibition at 100 µg/mL [%],Structure (SMILES)
1,93.1,Oc1ccc(-c2csc(Nc3ncccn3)n2)c(O)c1 [Compound 1]
2,100,Oc1ccc(-c2csc(Nc3ccccc3)n2)c(O)c1 [Compound 2]
3,87.9,CN(c1ccccc1)c1nc(-c2ccc(O)cc2)cs1 [Compound 22]

# The next lines start with the compound.
row,Structure (SMILES),inhibition at 100 µg/mL [%]
1,Oc1ccc(-c2csc(Nc3ncccn3)n2)cc1 [Compound 20],61.3
2,Oc1ccc(-c2csc(Nc3ccccn3)n2)cc1 [Compound 21],87.6
3,Oc1ccc(-c2csc(NN3CCOCC3)n2)c(O)c1 [Compound 24],82.9
4,Oc1ccc(-c2csc(N3CCOCC3)n2)c(O)c1 [Compound 25],90.3
5,O=C(Nc1nc(-c2ccc(O)cc2O)cs1)c1ccccc1 [Compound 26],100
6,CCN(CC)CCNc1nc(-c2ccc(O)cc2O)cs1 [Compound 28],80.5

# Source: US8920785B2, “Cosmetic or dermatological preparations with a content of one or more thiazole derivates” (Beiersdorf AG, priority 2010, dated 2014)
